The numbers were not newly measured in patent US6652866B1 (priority 1997, dated 2003), which cites them from elsewhere.

The subject of the data set is scrapie. The following applies: hamsters.

Take `C[C@@H]1[C@H](O)[C@@H](C)/C=C/C=C/C=C/C=C/C=C/C=C/C=C/[C@H](O[C@@H]2O[C@H](C)[C@@H](O)[C@H](N)[C@@H]2O)C[C@@H]2O[C@](O)(C[C@@H](O)C[C@@H](O)[C@H](O)CC[C@@H](O)C[C@@H](O)CC(=O)O[C@H]1C)C[C@H](O)[C@H]2C(=O)O` [amphoteracin-b]: the “incubation time of scrapie” value is reported as “prolonged the incubation time”; the “prevention of onset of neurological symptoms, neuronal destruction and death” value is recorded as “ineffective”.
